Source: patent publication EP0117797A1, “Nitroso ureas, process for their preparation and their therapeutic use” (CENTRE NATIONAL DE LA RECHERCHE SCIENTIFIQUE, priority 1983, dated 1984)

Columns and labels:
[1] = Acute toxicity (DL50); conditions: mouse, in vivo
[2] = test system: cellules de leucémie L 1210; test: Oncostatic activity against L 1210 leukaemia (i.p.) in mice, survival T/C; assay type: in vivo, souris F1, (DBA/2XC57 B 1/6); conditions: for efficacité (comparison in words): 2-chloro-éthylamides compared with the known -NH2 amides (N° 10, 14 et 16); for efficacité (comparison in words) / Dose optimale / T/C max / M.E.D.I.: L 1210 i.p.; for T/C max: treated days 1, 5 and 9, suspension in oil, T/C = ∞ when 50 % of the animals are cured, T/C > 125 % = active; for M.E.D.I.: dose plateau of maximum activity corresponding to T/C = ∞; for I = DL50 / D.Opt.: therapeutic index, DL50 divided by optimal dose
Source text: L'activité oncostatique de certains composés de l'invention par comparaison à d'autres nitrosourées connues a été déterminée en suivant le protocole expérimental suivant : • Des souris F1, (DBA/2XC57 B 1/6) sont inoculées avec 10^5 cellules de leucémie L 1210 par voie intrapéritonéale au jour 0 et divisées en 5 groupes. Le premier est le groupe de contrôle et les quatre autres sont traités avec les produits à tester à différentes concentrations, aux jours 1,5 et 9. Les composés sont injectés en suspension dans l'huile. La mortalité des animaux est observée et l'autopsie indique si elle est due à la leucémie ou à l'action toxique de la drogue. Les résultats, pour chaque dose de produit, sont exprimés en T/C (%) (T représente la médiane de survie du groupe traité et C la médiane de survie du groupe témoin T/C = ∞ quand 50 % des animaux sont guéris. T/C > 125 % signifie qu'une drogue est active.
Ces essais ont été effectués à l'aide de composés de formule [formula] pour différents amino-acides et différentes significations du substituant X (substituant côté C terminal).
Les significations de X sont les suivantes : • 1) Composés de l'invention : X = -NH-CH2-CH2Cl, -N(CH2-CH2-Cl)2 et -NH-C6H4-N(CH2-CH2-Cl)2 • 2) Composés en dehors de l'invention : X = -NH2 et -NH-C^H3.
Le tableau précédent rapporte les valeurs DL50, T/C, M.E.D.I. (Maximum efficace dose internal = plateau d'activité maximum correspondant à T/C = ∞), dose optimale et Indice thérapeutique.

Compound | LD50 [1] | efficacité (comparison in words) [2] | Dose optimale [2] | T/C max [2] | M.E.D.I. [2] | I = DL50 / D.Opt. [2] | DL50 [1]
CSCC[C@H](NC(=O)N(CCCl)N=O)C(=O)NCCCl [compound 13] | 32 mg/kg | beaucoup plus efficaces | 20 mg/kg | ∞ | 10 to 30 mg/kg | 1,60 | 
O=NN(CCCl)C(=O)N[C@@H](CC(=O)NCCCl)C(=O)NCCCl [compound 3] | 130 mg/kg |  | 37 mg/kg | ∞ | 25 to 50 mg/kg | 3,50 | 
O=NN(CCCl)C(=O)NCCCC[C@H](NC(=O)N(CCCl)N=O)C(=O)NCCCl [compound 12] | 135 mg/kg |  | 30 mg/kg | ∞ | 20 to 40 mg/kg | 4,50 | 
O=NN(CCCl)C(=O)NCCCC(=O)NCCCl [compound 7] |  |  | 35 mg/kg | ∞ | 20 to 50 mg/kg | 3,57 | 125 mg/kg
O=NN(CCCl)C(=O)NCCC(=O)NCCCl [compound 2] |  |  | 35 mg/kg | ∞ | 20 to 50 mg/kg | 2,86 | 100 mg/kg
C[C@H](NC(=O)N(CCCl)N=O)C(=O)NCCCl [compound 1] | 35 mg/kg |  | 20 mg/kg | ∞ | 10 to 30 mg/kg | 1,75 | 
CC(C)C[C@H](NC(=O)N(CCCl)N=O)C(=O)NCCCl [compound 9] | 64 mg/kg | beaucoup plus efficaces | 35 mg/kg | ∞ | 15 to 50 mg/kg | 1,80 | 
